The values that follow come from US6849602B1 (The Regents of the University of California, priority 1996, dated 2005).

One experiment deals with Chung model rats. Put plainly: Tactile allodynia (von Frey, 50% paw withdrawal threshold) after bolus intrathecal injection in Chung model rats. Format: in vivo, rat. The conditions noted are these: for activity in alleviating neuropathic pain as assayed using Chung rats: summary statement. On the procedure: Each of the three peptides were obtained in pure form by chemical synthesis, dissolved in sterile PBS and buffered to a neutral pH.
The surgical procedure previously described by Kim and Chung, supra (1992) was performed on male Sprague-Dawley rats weighing 120 to 150 grams to induce an allodynic state. Briefly, the rats were anesthetized with halothane; subsequently, the left L-5 and L-6 spinal nerves were isolated adjacent to the vertebral column and ligated with 6.0 silk suture distal to the dorsal root ganglion.
After a ten to fourteen day post operative recovery period, a spinal catheter was introduced. Five days following the second surgery, intrathecal drug administration was accomplished using a gear driven micro-injection syringe connected to a spinal catheter inserted through the foramen magnum. Prior to testing, the rats were placed in clear plastic wire meshed cages and allowed to acclimate.
To assess the 50% mechanical threshold for paw withdrawal, a von Frey hair was applied to the hind foot avoiding the foot pad. Each of the von Frey hairs, which are calibrated to bend at increasing log forces, were pressed perpendicularly to the foot with sufficient force to cause slight bending for a duration of approximately six to eight seconds. A positive response was noted if the foot was sharply withdrawn. Six data points were collected for each point with the maximum and minimum stimulus noted for each time point. The resulting pattern of the responses was tabulated, and the 50% response threshold was computed. The graph gives the response to the indicated dosage of peptide given as a single intrathecal bolus injection. The X-axis indicates the time after the injection at which point the hypersensitivity to pressure on the foot pad was measured.

The subject of experiment [1] is neuroblastoma cells. Put plainly: Neurotrophic activity (neurite outgrowth, choline acetyltransferase, cell death). The class given is cell-based.
Experiment [2] relates to neuroblastoma cells. The conditions noted are these: O'Brien et al.; cited from earlier work.
Experiment [3] relates to normal male Sprague Dawley rats. Put plainly: Hot plate response latency in normal rats after intrathecal injection. The class given is in vivo, rat. The following applies: hot plate 52.5° C., up to 180 minutes after intrathecal injection. As for the experimental part: Briefly, the period of time before the rat withdraws the affected foot from a source of heat is defined as the hot plate latency and is a measure of tolerance to pain caused by a heat stimulus.
An intrathecal catheter was placed into normal male Sprague Dawley rats. […] Rats were examined on the hot plate (52.5° C.); hot plate response latencies were measured prior to injection and at various time points up to 180 minutes after the injection.

Another experiment concerns taxol-treated mice. Nature of the experiment: Loss of thermal sensation (Hargreaves) in taxol-treated mice. Format: in vivo, mouse. On the procedure: Mice were administered taxol in order to induce sensory neuropathy.
The loss of thermal sensation was measured using a Hargreaves sensory testing apparatus as an indicator of sensory neuropathy.

“Also recorded” adds a separate entry of the source. No end group written: not given here.

Take CEFLVKEVTKLIDDNKTEKEIL [SEQ ID NO:8]: in the experiment on Chung model rats (injection of 17.5 μg), the allodynic response entry is on record as “No change in the allodynic response”. The “activity in alleviating neuropathic pain as assayed using Chung rats” value was “inactive in alleviating neuropathic pain” in the experiment on Chung model rats and “lacks activity in alleviating neuropathic pain” in the experiment with Chung model rats (listed as SEQ ID NO8). In addition, in the experiment with neuroblastoma cells [1], the neurotrophic activity result is reported as “lacks neurotrophic activity”.

Consider CEFLVKEVTKLIDNNKTEKEIL [SEQ ID NO:1], for which, in the experiment on neuroblastoma cells [2], the “cell death in neuroblastoma cells” value is given as “prevents cell death in neuroblastoma cells”, the choline acetyltransferase activity result is reported as “stimulates” and the neurite outgrowth result was “stimulates neurite outgrowth”. For the same sequence, the “duration of effect following administration” value in the experiment with Chung model rats (FIG. 1) is 3 h. In addition, in the experiment on Chung model rats (highest dose, intrathecal), the “latest time point with significantly reduced allodynia” value is not below 180 min. Moreover, in the experiment with Chung model rats (intrathecal bolus), the “time after injection to significant effect” value is not above 15 min and the “time of maximum (peak) effect post-injection” value worked out at 120 min. Besides, the “tactile allodynia (force threshold)” value with Chung model rats (intrathecal injection of 0.007 μg) was “no significant reduction in allodynia”. The “tactile allodynia (force threshold)” value in the experiment with Chung model rats (intrathecal injection of 0.7 or 0.07 μg) is reported as “suppressed allodynia in a dose-dependent fashion”. Besides, in the experiment on Chung model rats, the “activity in alleviating neuropathic pain as assayed using Chung rats” value is “reduces the painful allodynia; also recorded: alleviate neuropathic pain”. In experiment [3], the “hot plate response latency” value is “No significant elevation of the hot plate response latency”. Moreover, the neurotrophic activity entry in the experiment on neuroblastoma cells [1] is given as “have neurotrophic activity”. In addition, the “loss of thermal sensation” value in the experiment on taxol-treated mice (100 μg/kg) was “the loss of thermal sensation was inhibited”. Also, the “loss of thermal sensation” value with taxol-treated mice (similarly assayed, dose not stated) is given as “effective in inhibiting less of thermal sensation”.

Take LIDNNKTEKEIL [SEQ ID NO:3]: the neurotrophic activity result with neuroblastoma cells [1] was “active as a neurotrophic factor”.

Turning to “TKLIDNDKTEKEIL [SEQ ID NO:9, substitution of the second conserved asparagine residue]”, in the experiment on neuroblastoma cells [1], the neurotrophic activity entry was “lacks neurotrophic activity”.

In the case of “TKSIDNNKTEKEIL [SEQ ID NO:10, substitution of the conserved leucine residue]”, the neurotrophic activity result in the experiment with neuroblastoma cells [1] is listed as “lacks neurotrophic activity”.
